According to PubChem BioAssay (NCI):
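Cultured in 96-well plates, cells were exposed to test compound for 48 hours across five concentrations. TGI is the concentration that stops growth completely.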

Columns and labels:
Test in all cases: NCI-60 cell line screen, 48 h
HCT-15 colon = tested on: HCT-15 colon
RPMI-8226 leukemia = tested on: RPMI-8226 leukemia
HOP-62 NSCLC = tested on: HOP-62 NSCLC
MDA-MB-231 breast = tested on: MDA-MB-231 breast
HCC-2998 colon = tested on: HCC-2998 colon
SK-OV-3 ovarian = tested on: SK-OV-3 ovarian
T-47D breast = tested on: T-47D breast
A498 renal = tested on: A498 renal
SF-268 CNS = tested on: SF-268 CNS
PC-3 prostate = tested on: PC-3 prostate

SMILES | TGI (HCT-15 colon) [µM] | TGI (RPMI-8226 leukemia) [µM] | TGI (HOP-62 NSCLC) [µM] | TGI (MDA-MB-231 breast) [µM] | TGI (HCC-2998 colon) [µM] | TGI (SK-OV-3 ovarian) [µM] | TGI (T-47D breast) [µM] | TGI (A498 renal) [µM] | TGI (SF-268 CNS) [µM] | TGI (PC-3 prostate) [µM]
COC(=O)/C=C(/C=C1/C(C#N)=C(N)N(c2ccc(Cl)cc2)C1(C)/C(=C\C(=O)OC)C(=O)OC)C(=O)OC (stereo not given) | 50.2 | > 100 | > 100 | 53.4 | 39.2 | > 100 | 39.5 | > 100 | 47.8 | 35
CC1(C)CC(=O)C2=C(C1)C(c1ccccc1Cl)C1C(=O)CC(C)(C)CC1(O)O2 (stereo not given) | > 100 | > 100 | > 100 | > 100 | > 100 | > 100 | > 100 | > 100 | > 100 | > 100
O=CC(I)=C(c1ccccc1)c1ccccc1 | 28.4 | > 59 | 32 | 29 | 35.8 | 29.9 | 34.9 | 41.8 | > 56.8 | 29.3
[N-]=[N+]=CC(=O)C1CCCN1C(=O)c1ccccc1 (stereo not given) | > 10 | > 10 | > 10 | > 10 | > 10 | > 10 | > 10 | > 10 | > 10 | > 10
CCOC(=O)CSc1nc(N)c2c(-c3ccccc3)c3c(nc2n1)CCCC3 | > 100 | > 100 | > 100 | > 100 | > 100 | > 100 | > 100 | > 100 | > 100 | > 100
S=C(Cc1ccc2c(c1)Sc1ccccc1O2)N1CCOCC1 | > 100 | > 100 | > 100 | > 100 | > 100 | > 100 | > 100 | > 100 | > 100 | > 100
O=c1c(F)cn2c(=O)n1CCCCCCCn1c(=O)c(F)cn(c1=O)CCCCCCC2 | > 100 | > 100 | > 100 | > 100 | > 100 | > 100 | > 100 | > 100 | 13.1 | > 100
O=C(CC(NC(=O)C(F)(F)F)C(=O)O)OCc1ccccc1 (stereo not given) | > 100 | > 100 | > 100 | > 100 | > 100 | > 100 | > 100 | > 100 | > 100 | > 100
Cn1c2ccccc2c2ccc3c(c21)C(=O)c1ccc2c4ccccc4n(C)c2c1C3=O | > 100 | > 100 | > 100 | > 100 | > 100 | > 100 | > 100 | > 100 | > 100 | > 100
Cc1ccc2cccc(-c3cccc4ccccc34)c2n1 | 91.1 | 40.2 | 56.9 | 81 | 29.1 | 75.2 | > 100 | 46 | > 100 | > 100
N#Cc1c(-c2ccc([N+](=O)[O-])cc2)cc(-c2ccc(Nc3ccnc4cc(Cl)ccc34)cc2)[nH]c1=O | > 100 | > 100 | > 100 | > 100 | > 100 | > 100 | > 100 | > 100 | > 100 | > 100
COc1ccc2nc(NC(=O)/C(C#N)=C/c3ccccc3)sc2c1 | > 100 | > 84.5 | > 100 | > 100 | > 100 | > 100 | > 100 | > 100 | > 100 | > 100
O=C(/C=C/c1ccc(Cl)cc1)Oc1ccc(C=C2CCC/C(=C\c3ccc(OC(=O)/C=C/c4ccc(Cl)cc4)cc3)C2=O)cc1 | > 100 | 97.1 | > 100 | > 100 | > 100 | > 100 | > 100 | > 100 | > 100 | > 100
O=C(NCc1ccccc1)c1cc2ccccc2oc1=Nc1cccc(C(F)(F)F)c1 | > 100 | > 100 | > 100 | > 100 | 61.1 | > 100 | > 100 | > 100 | > 100 | > 100
CC1=CC2C3(C)C(C)(C(C)=CP3(=O)c3c(C(C)C)cc(C(C)C)cc3C(C)C)C1P2(=O)c1c(C(C)C)cc(C(C)C)cc1C(C)C (stereo not given) | 5.87 | 3.02 | 10.4 | 3.87 | 3.47 | 10.9 | 10.9 | 6.26 | 12.1 | 10.4
O=C(ON=C1c2ccccc2C(Br)C(Br)c2ccccc21)c1ccccc1 (stereo not given) | 42.5 | 14.7 | 17.3 | 33.5 | 38.1 | 38.9 | 29.3 | 40.9 | 42.3 | 40.2

SMILES | TGI (HCT-15 colon) [µM] | TGI (RPMI-8226 leukemia) [µM] | TGI (HOP-62 NSCLC) [µM] | TGI (MDA-MB-231 breast) [µM] | TGI (HCC-2998 colon) [µM] | TGI (SK-OV-3 ovarian) [µM] | TGI (T-47D breast) [µM] | TGI (A498 renal) [µM] | TGI (SF-268 CNS) [µM] | TGI (PC-3 prostate) [µM]
OCc1ccc2c(c1)CC1(C2)Cc2cc3c(cc2C1O)CCC3 (stereo not given) | > 44.2 | 15.8 | 17.7 | 13.3 | > 45.3 | 46.6 | 9.44 | 27.7 | > 72.7 | 11.7
NC1=CC(=O)c2c(O)ccc(O)c2C1=O | > 56.1 | 44.9 | 64.9 | 38.5 | 24.2 | > 94.5 | 35.7 | 47.5 | > 70.1 | > 90.6
CN(CCN1CCCC1)C1CCc2cc(Cl)c(Cl)cc2C1 (stereo not given) | 26.5 | 55.4 | 32.7 | 34.7 | 18.2 | 32.4 | 22.1 | 27.1 | 34 | 52.4
CCCCI(O)OS(=O)(=O)c1ccc(C)cc1 | > 100 | > 100 | > 100 | > 100 | > 100 | > 100 | > 100 | > 100 | > 100 | > 100
c1c[nH]c(-c2cccc3nsnc23)c1 | > 100 | > 100 | > 100 | > 100 | > 100 | > 100 | > 100 | > 100 | > 100 | > 100
O=C(CCc1cc(O)cc(O)c1)NCCc1cc(OCc2ccccc2)cc(OCc2ccccc2)c1 | 29.8 | 54 | 36.8 | 39.3 | 35 | 31.6 | 39.3 | 42.8 | 43.2 | 23.6
Cc1ccc(-c2cc(-c3ccco3)c(C#N)c(=S)[nH]2)cc1 | > 100 | > 100 | > 100 | > 100 | > 100 | > 100 | 71.5 | > 100 | > 100 | > 100
Cc1c(C)n(-c2ccccc2)c2nc(S(C)=O)nc(S(C)=O)c12 (stereo not given) | 17.8 | 5.28 | 36.5 | 17.3 | 30.3 | 32.4 | 8.62 | 26.9 | 22.8 | 19.7
c1ccc(C2=NC3OC2c2ccccc23)cc1 (stereo not given) | > 10 | > 10 | > 10 | > 10 | > 10 | > 10 | > 10 | > 10 | > 10 | > 10
COc1ccc2c(c1)c1c(n2CCN2CCCCC2)-c2cccc(OC)c2CC1 | 70.1 | 35.5 | 32.4 | 36.6 | 36.4 | > 100 | 47.2 | 49.2 | 48.8 | 35.6
CCCCCCN(CCCCCC)C(=S)N/N=C(\C)c1ccccn1 | 3.4 | 3.22 | 3.32 | 2.76 | 9.03 | 2.77 | 1.91 | 9.29 | 3.52 | 1.88
CC(=O)Nc1nc(Cl)cc(NCC2(CO)CCC2)n1 | > 100 | > 100 | > 100 | > 100 | > 100 | > 100 | > 100 | > 100 | > 100 | > 100
CCOC(=O)c1c(N2CCCC2)[nH]c(=O)c(C(c2ccc(OC)cc2)c2c(O)c(C(=O)OCC)c(N3CCCC3)[nH]c2=O)c1O | > 100 | > 100 | > 100 | 88.1 | > 100 | > 100 | > 100 | > 100 | > 100 | > 100
CC(=O)c1ccc(Oc2c3ccccc3nc3ccccc23)cc1 | 17.5 | 9.63 | 29.5 | 25.5 | 24 | 29.3 | 18 | 31.8 | 17.9 | 20.3
Cn1c2ccccc2n2c3ncccc3c(=O)c(C#N)c12 | > 53.8 | > 100 | 29.5 | 57.1 | > 100 | 98.1 | > 100 | 34 | > 100 | > 100
CN(C)C(=O)C(F)(F)C(c1ccc(F)cc1)C1C(=O)N(C)C(=O)N(C)C1=O (stereo not given) | > 100 | > 100 | > 100 | > 100 | > 100 | > 100 | > 100 | > 100 | > 100 | > 100
